From publication PMC6150205, “Semisynthesis, an Anti-Inflammatory Effect of Derivatives of 1β-Hydroxy Alantolactone from Inula britannica” (Molecules : A Journal of Synthetic Chemistry and Natural …, 2017)

Assays:
Type in all cases: cell-based
[1] = system: LPS-induced NO production in RAW 264.7 macrophages; assay: Inhibition of LPS-induced NO production in RAW 264.7 macrophages (Griess reagent); settings: for IC50: LPS-induced RAW 264.7 macrophages, 4 h pretreatment, then 48 h with 2 μg/mL LPS
Procedure: (§1) Then, 100-μL aliquots of the exponentially growing RAW 264.7 cells were seeded in 96-well culture plates at 1 × 10^4 cells/well at 37 °C for overnight in DMEM medium with 0.1% FBS. The culture medium was replaced by fresh free-FBS medium and cells were pretreated with different concentrations (0, 1, 3, 10, 30, 100, 300, 1000 μM) of samples for 4 h. Thereafter, the medium with samples was removed and then incubated for 48 h with or without 2 μg/mL LPS 10% FBS DMEM. The nitrite concentration (NO production) in the culture supernatant was measured using Nitric Oxide assay kit mainly containing Griess reagent. The absorbance was measured at 540 nm using a microplate reader (M5). The amount of NO was calculated from a standard curve created using sodium nitrite with known concentrations. The cell viability was evaluated by SRB colorimetric assay.

[2] = Cytotoxicity / cell viability by SRB colorimetric assay; settings: mouse, RAW 264.7 cells, inhibition of cell viability of samples-treated RAW264.7 cells
Procedure: as §1

[3] = system: NF-κB; assay: NF-κB luciferase reporter assay in TNF-α-induced RAW264.7 cells; settings: 8 h treatment, TNF-α 50 ng/mL; for inhibition of the NF-κB pathway (result in words): 1-50 µM; for inhibition at 20 µM: Mus musculus, read-out: NF-κB-luciferase inhibitory percentage
Procedure: RAW 264.7 cells (10,000 cells/well) were placed in a 96-well plate and the cells were then transfected with pNF-κB-Luc expression plasmid using a mixture of plasmid and lipofectamin 2000 PLUS in the Opti-MEM® I Reduced Serum Medium according to manufacturer’s instructions (Life Technologies, Carlsbad, CA, USA). After 12 h, the cells were co-incubated with the active samples (1, 5, 10, 20, 50 µM) and TNF-α. Parthenolide (P) was used as positive control. NF-κB was induced by adding TNF-α (50 ng/mL, delivered in PBS) to the treated wells and the induced control wells. After an additional 8 h, Bright-Glo luciferase reagent (Beyotime) was added to each well (100 μL) and the plate was allowed to stand for two minutes. Luminescence measurements with a relative light unit (RLU) were then obtained using a Fluoroskan Ascent multiple microplate reader (Molecular Device, Sunnyvale, CA, USA). Each experiment was performed in biological triplicate (at minimum) with three technical replicates per experiment.
Figure 3 Compound 1 inhibited TNF-α-induced NF-κB activation by NF-κB-luciferase inhibition assay in RAW264.7 cells. 1 and parthenolide (P, positive control) were dosed to RAW264.7 cells containing a stably transfected NF-κB luciferase reporter and stimulated with TNF-α (50 ng/mL) for 8 h (except for a non-induced control, Non-Ind). […] Mean ± standard deviation values are shown with more than three replicates.

[4] = system: NF-κB p65 and p50 subunit; assay: Western blotting of p65 and p50 phosphorylation in TNF-α-induced RAW264.7 cells; settings: 50, 10 and 1 µM, 8 h, TNF-α 50 ng/mL
Procedure: RAW 264.7 cells were seeded in a 24-well plate at 5 × 10^4 cells/well. After cells adherence for overnight, the test compound 1 (50, 10 and 1 µM) or parthenolide (10 µM) and TNF-α (50 ng/mL) were added to the wells and incubated for 8 h. Then, cell pellets were collected and lysed with RIPA lysis buffer containing 0.5 mM phenylmethylsulfonyl fluoride (PMSF) and a protease inhibitor cocktail. The protein concentration of cell samples was analyzed by using the BCA method. Equal amount proteins of each sample were electrophoresed on 12% separating gel and 4% stacking gel and electrotransferred onto an NC membrane. After incubation with appropriate primary and secondary antibodies of p65 and p50, protein blots were detected by using ECL solution and ChemiDoc XRS+ imaging system (Bio-Rad, Hercules, CA, USA). β-actin was used as loading control.  Figure 4 Compound 1 blocks TNF-α-induced NF-κB activation through p65 and p50 phosphorylation in RAW264.7 cells. After treatment with 1 and parthenolide (P) at the indicated concentrations for 8 h, total cell lysates were tested by western blot experiments.

SMILES | IC50 ([1]; Mus musculus, RAW264.7) [µM] | IC50 at 4 h [2] [µM] | also measured
N=C(N)NN [Aminoguanidine, reference compound] |  |  | IC50 [1]: 10.9 ± 1.5 µM
C=C1C(=O)O[C@@H]2C[C@]3(C)C(=C[C@H]12)[C@@H](C)CC[C@H]3OC(C)=O [Compound 3] | 46.5 ± 5.6 | > 50 | 
C[C@@H]1C(=O)O[C@@H]2C[C@]3(C)C(=C[C@H]12)[C@@H](C)CC[C@H]3O [Compound 5] | > 1000 |  | 
Cc1ccc(C2=NO[C@]3(C2)C(=O)O[C@@H]2C[C@@]4(C)C(=O)CC[C@H](C)C4=C[C@@H]23)cc1 [Compound 6] | > 1000 |  | 
C=C1C(=O)O[C@H]2[C@H]1CC/C(C)=C/CC[C@@]1(C)O[C@@H]21 [parthenolide, Parthenolide, reference compound] |  |  | inhibition of the NF-κB pathway (result in words) [3]: comparably potent

Now from value to molecule, other results behind:

IC50 ([1]; Mus musculus, RAW264.7) [µM] | SMILES | IC50 at 4 h [2] [µM] | also measured
5.61 ± 0.34 | C=C1C(=O)O[C@@H]2C[C@]3(C)C(=C[C@H]12)[C@@H](C)CC[C@H]3O [Compound 1, 1β-Hydroxy alantolactone] | > 50 | inhibition of the NF-κB pathway (result in words) [3]: dose-dependent inhibition; inhibition at 20 µM [3]: 75%; potency against NO production relative to 2–4 ([1]; ratio of IC50 values, 1 versus 2–4): 6.5–8.4 fold; TNF-α-induced phosphorylation of NF-κB p65 and p50 subunit (result in words) [4]: dose-dependently suppressed
36.1 ± 3.8 | C=C1C(=O)O[C@@H]2C[C@@]3(C)C(=O)CC[C@H](C)C3=C[C@H]12 [Compound 2] | 34.5 ± 5.8 | inhibition at 20 µM [3]: 55%
39.6 ± 5.7 | C=C1C(=O)O[C@@H]2C[C@]3(C)C(=C[C@H]12)[C@@H](C)CC[C@H]3OC(=O)CCC(=O)O [Compound 4] | > 50 | 
